IC50 data for 39 compounds are collected here from BindingDB's records for doi:10.7270/Q22V2DH9 (Nmmlsc, 2007).

One may read the IC50 as the concentration at which inhibition is half-maximal. A high value points to a need for much substance.

A value given as a limit tells only on which side of the number the result lay.

In this assay the target is T1, N-formyl peptide receptor 2 (Homo sapiens, UniProt P25090).
T1 sequence (P25090 whole entry): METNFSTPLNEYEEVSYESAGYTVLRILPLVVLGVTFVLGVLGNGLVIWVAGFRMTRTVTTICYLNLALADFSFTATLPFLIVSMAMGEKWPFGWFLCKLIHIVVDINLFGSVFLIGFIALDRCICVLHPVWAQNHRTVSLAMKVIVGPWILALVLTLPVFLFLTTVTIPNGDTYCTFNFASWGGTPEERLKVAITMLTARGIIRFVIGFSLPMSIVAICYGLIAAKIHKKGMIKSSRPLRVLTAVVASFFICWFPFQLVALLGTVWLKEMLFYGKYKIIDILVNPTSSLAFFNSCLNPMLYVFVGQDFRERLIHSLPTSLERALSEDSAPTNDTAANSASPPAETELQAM
Put plainly: human FPR2 ligand displacement potency – cell-based, flow cytometry, Ki from IC50, selectivity assay for FPR1 ligand SAR project, dose response (AID 723). A general note: A flow cytometer gives signals particle by particle.
Compound `CCCCCCOc1cccc(N2C(=O)C(=O)C(C(=O)c3ccccc3)C2c2cccc(F)c2)c1` (centres undefined) [(4Z)-5-(3-fluorophenyl)-1-(3-hexoxyphenyl)-4-[hydroxy(phenyl)methylene]pyrrolidine-2,3-quinone] had an IC50 of over 66.7 µM.

Take `COCCN1C(=O)C(=O)C(C(=O)c2ccccc2)C1c1ccc(C(C)C)cc1` (centres undefined) [(4E)-1-(2-methoxyethyl)-4-[oxidanyl(phenyl)methylidene]-5-(4-propan-2-ylphenyl)pyrrolidine-2,3-dione]: the IC50 is over 66.7 µM.

Compound `Cc1cccc(C2CC(=O)NC3=C2C(=O)CC(c2cccs2)C3)c1` (centres undefined) [4-(3-methylphenyl)-7-thiophen-2-yl-1,3,4,6,7,8-hexahydroquinoline-2,5-dione] returned an IC50 of over 66.7 µM.

The compound `COc1ccc(OC)c(CNC(=O)Cn2c(=O)sc3ccccc32)c1` [N-(2,5-dimethoxybenzyl)-2-(2-keto-1,3-benzothiazol-3-yl)acetamide] came in with an IC50 of over 66.7 µM.

`Cc1ccc(C(=O)C2C(=O)C(=O)N(c3nnc(C)s3)C2c2ccc(C(C)C)cc2)cc1` (centres undefined) [(4E)-4-[(4-methylphenyl)-oxidanyl-methylidene]-1-(5-methyl-1,3,4-thiadiazol-2-yl)-5-(4-propan-2-ylphenyl)pyrrolidine-2,3-dione]: the IC50 is over 66.7 µM.

For `COc1ccc(-c2c(C)[nH]n3c(=O)c4c(nc23)CCCC4)cc1`, the IC50 is over 66.7 µM.

In the case of `CC(C)c1ccc(C2C(C(=O)c3ccccc3)C(=O)C(=O)N2Cc2cccnc2)cc1` (centres undefined) [(4E)-4-[hydroxy(phenyl)methylene]-5-p-cumenyl-1-(3-pyridylmethyl)pyrrolidine-2,3-quinone], the IC50 is over 66.7 µM.

Turning to `COc1cc(C2C(C(=O)c3cc4ccccc4o3)C(=O)C(=O)N2CCN(C)C)ccc1O` (centres undefined) [3-(1-benzofuran-2-carbonyl)-1-[2-(dimethylamino)ethyl]-4-hydroxy-2-(4-hydroxy-3-methoxyphenyl)-2H-pyrrol-5-one], the IC50 was over 66.7 µM.

Compound `Cc1sc2c(c1C)c(=O)n(Cc1ccccc1)c(=O)n2Cc1ccccc1F` [1-[(2-fluorophenyl)methyl]-5,6-dimethyl-3-(phenylmethyl)thieno[2,3-d]pyrimidine-2,4-dione] had an IC50 of over 66.7 µM.

As to `COc1cccc(/C=C2/C(=O)NN(c3ccc(C)cc3)C2=O)c1` [(4Z)-4-[(3-methoxyphenyl)methylidene]-1-(4-methylphenyl)pyrazolidine-3,5-dione], the IC50 was over 66.7 µM.

`CC(=O)C1C(=O)C(=O)N(CCc2c(C)[nH]c3ccccc23)C1c1cccc(F)c1` (centres undefined) had an IC50 of over 66.7 µM.

Regarding `Cc1nc2c(-c3ccc(Cl)cc3)c(C(F)(F)F)[nH]n2c(=O)c1Cc1ccccc1`, the IC50 was over 66.7 µM.

Regarding `COc1ccc(C2C(C(=O)c3ccccc3)C(=O)C(=O)N2CCCn2ccnc2)c(OC)c1` (centres undefined) [(4E)-5-(2,4-dimethoxyphenyl)-1-(3-imidazol-1-ylpropyl)-4-[oxidanyl(phenyl)methylidene]pyrrolidine-2,3-dione], the IC50 was over 66.7 µM.

In the case of `O=C(Oc1ccc2c(=O)c(Oc3ccccc3Br)c(C(F)(F)F)oc2c1)c1cccs1` [2-thiophenecarboxylic acid [3-(2-bromophenoxy)-4-oxo-2-(trifluoromethyl)-1-benzopyran-7-yl] ester], the IC50 was over 66.7 µM.

As to `O=C1NC(c2ccc(Br)cc2)C(C(=O)c2ccc(Cl)cc2)C1=O` (centres undefined) [(4E)-5-(4-bromophenyl)-4-[(4-chlorophenyl)-hydroxy-methylene]pyrrolidine-2,3-quinone], the IC50 was over 66.7 µM.

`CCC(C)(C(=O)NC1CCCCC1)N(Cc1cccs1)C(C)=O` (centres undefined) [2-[acetyl(2-thenyl)amino]-N-cyclohexyl-2-methyl-butyramide] returned an IC50 of over 66.7 µM.

In turn, `COc1ccc(-c2c(C(F)(F)F)oc3c(CN4CCOCC4)c(O)ccc3c2=O)cc1OC` [3-(3,4-dimethoxyphenyl)-7-hydroxy-8-(4-morpholinylmethyl)-2-(trifluoromethyl)-1-benzopyran-4-one] registered an IC50 of over 66.7 µM.

As for `O=C1C(=O)N(CCCn2ccnc2)C(c2cccnc2)C1C(=O)c1ccco1` (centres undefined) [3-(furan-2-carbonyl)-4-hydroxy-1-(3-imidazol-1-ylpropyl)-2-pyridin-3-yl-2H-pyrrol-5-one], the IC50 was over 66.7 µM.

Turning to `O=C(O)CCCN1C(=O)C(=O)C(C(=O)c2ccccc2)C1/C=C/c1ccccc1` (centres undefined) [4-[(4E)-2,3-bis(oxidanylidene)-4-[oxidanyl(phenyl)methylidene]-5-[(E)-2-phenylethenyl]pyrrolidin-1-yl]butanoic acid], the IC50 is over 66.7 µM.

In turn, `COc1ccc(OC)c(C2C(C(=O)c3ccccc3)C(=O)C(=O)N2c2cccnc2)c1` (centres undefined) [(4E)-5-(2,5-dimethoxyphenyl)-4-[hydroxy(phenyl)methylene]-1-(3-pyridyl)pyrrolidine-2,3-quinone] yielded an IC50 of over 66.7 µM.

With `COc1ccc(OC)c(C2C(C(=O)c3ccc(C)cc3)C(=O)C(=O)N2CCC(=O)O)c1` (centres undefined) [3-[(3E)-2-(2,5-dimethoxyphenyl)-3-[(4-methylphenyl)-oxidanyl-methylidene]-4,5-bis(oxidanylidene)pyrrolidin-1-yl]propanoic acid], the IC50 is over 66.7 µM.

In the case of `COc1ccc(C2C(C(=O)c3ccco3)C(=O)C(=O)N2CCCN2CCOCC2)cc1OC` (centres undefined) [2-(3,4-dimethoxyphenyl)-3-(furan-2-carbonyl)-4-hydroxy-1-(3-morpholin-4-ylpropyl)-2H-pyrrol-5-one], the half-maximal inhibitory concentration (IC50) is over 66.7 µM.

In the case of `O=C1CC(c2ccccc2C(F)(F)F)C2=C(CC(c3cccs3)CC2=O)N1` (centres undefined) [7-(2-thienyl)-4-[2-(trifluoromethyl)phenyl]-1,3,4,6,7,8-hexahydroquinoline-2,5-quinone], the IC50 is over 66.7 µM.

Take `CCCCCCN1C(=O)C(=O)C(C(=O)c2ccccc2)C1c1ccc(O)c(OC)c1` (centres undefined) [(4Z)-1-hexyl-5-(3-methoxy-4-oxidanyl-phenyl)-4-[oxidanyl(phenyl)methylidene]pyrrolidine-2,3-dione]: the IC50 is over 66.7 µM.

In turn, `O=C1C(=O)N(c2ccc(F)cc2)C(c2ccc(Br)cc2)C1C(=O)c1ccccc1` (centres undefined) [(4Z)-5-(4-bromophenyl)-1-(4-fluorophenyl)-4-[hydroxy(phenyl)methylene]pyrrolidine-2,3-quinone] yielded an IC50 of over 66.7 µM.

The compound `COCCN1C(=O)C(=O)C(C(=O)c2ccccc2)C1c1cc(OC)ccc1OC` (centres undefined) [(4E)-5-(2,5-dimethoxyphenyl)-1-(2-methoxyethyl)-4-[oxidanyl(phenyl)methylidene]pyrrolidine-2,3-dione] gave an IC50 of over 66.7 µM.

Regarding `COc1cccc(-c2ccnc3[nH]n(-c4ccccc4)c(=O)c23)c1` [UNM000003608001], the half-inhibitory concentration (IC50) was over 66.7 µM.

`COc1ccc(-c2c(C(F)(F)F)oc3cc(OC(=O)c4cccnc4)ccc3c2=O)cc1OC` [3-pyridinecarboxylic acid [3-(3,4-dimethoxyphenyl)-4-oxo-2-(trifluoromethyl)-1-benzopyran-7-yl] ester] yielded an IC50 of over 66.7 µM.

`COc1cc(C2C(C(C)=O)C(=O)C(=O)N2c2ccc(Br)cc2)ccc1O` (centres undefined) [1-(4-bromophenyl)-3-ethanoyl-2-(3-methoxy-4-oxidanyl-phenyl)-4-oxidanyl-2H-pyrrol-5-one] came in with an IC50 of over 66.7 µM.

As for `Cc1ccc(N2C(=O)C(=O)C(C(=O)c3ccccc3)C2c2cccc(F)c2)cc1Br` (centres undefined) [(4Z)-1-(3-bromanyl-4-methyl-phenyl)-5-(3-fluorophenyl)-4-[oxidanyl(phenyl)methylidene]pyrrolidine-2,3-dione], the IC50 is over 66.7 µM.

For `COc1ccc(C2C(C(=O)N3CCCC(C)C3)c3ccccc3C(=O)N2C)cc1` (centres undefined) [3-(4-methoxyphenyl)-2-methyl-4-(3-methylpiperidin-1-yl)carbonyl-3,4-dihydroisoquinolin-1-one], the IC50 was over 66.7 µM.

Turning to `COc1ccc(C2C(C(=O)c3ccccc3)C(=O)C(=O)N2c2cccc(Cl)c2)c(OC)c1` (centres undefined) [(4E)-1-(3-chlorophenyl)-5-(2,4-dimethoxyphenyl)-4-[hydroxy(phenyl)methylene]pyrrolidine-2,3-quinone], the IC50 is over 66.7 µM.

For the compound `COCCCN1C(=O)C(=O)C(C(=O)c2ccccc2)C1c1ccc(O)c(OC)c1` (centres undefined) [(4E)-5-(3-methoxy-4-oxidanyl-phenyl)-1-(3-methoxypropyl)-4-[oxidanyl(phenyl)methylidene]pyrrolidine-2,3-dione], the IC50 is over 66.7 µM.

`COCCN1C(=O)C(=O)C(C(=O)c2ccccc2)C1c1ccccc1OC` (centres undefined) [(4E)-1-(2-methoxyethyl)-5-(2-methoxyphenyl)-4-[oxidanyl(phenyl)methylidene]pyrrolidine-2,3-dione] returned an IC50 of over 66.7 µM.

Regarding `O=C(O)C1CCCCC1C(=O)Nc1ccc(Br)cc1` (centres undefined) [2-[(4-bromoanilino)-oxomethyl]-1-cyclohexanecarboxylic acid], the IC50 is over 66.7 µM.

In turn, `Cc1ccc(C(=O)C2C(=O)C(=O)N(Cc3cccnc3)C2c2ccc(Br)cc2)cc1` (centres undefined) [(4E)-5-(4-bromophenyl)-4-[(4-methylphenyl)-oxidanyl-methylidene]-1-(pyridin-3-ylmethyl)pyrrolidine-2,3-dione] gave an IC50 of over 66.7 µM.

Take `COc1ccc(C2C(C(=O)c3ccc(C)cc3)C(=O)C(=O)N2Cc2cccnc2)c(OC)c1` (centres undefined) [(4E)-5-(2,4-dimethoxyphenyl)-4-[(4-methylphenyl)-oxidanyl-methylidene]-1-(pyridin-3-ylmethyl)pyrrolidine-2,3-dione]: the IC50 was over 66.7 µM.

`O=C1C(=O)N(CCCn2ccnc2)C(c2cccnc2)C1C(=O)c1cc2ccccc2o1` (centres undefined) [3-(1-benzofuran-2-carbonyl)-4-hydroxy-1-(3-imidazol-1-ylpropyl)-2-pyridin-3-yl-2H-pyrrol-5-one] displayed an IC50 of over 66.7 µM.

Turning to `COc1ccc(-c2c(C(F)(F)F)oc3cc(OC(=O)c4ccco4)ccc3c2=O)cc1OC` [2-furancarboxylic acid [3-(3,4-dimethoxyphenyl)-4-oxo-2-(trifluoromethyl)-1-benzopyran-7-yl] ester], the IC50 was over 66.7 µM.
